Experimental data published in PMC4079544, “A Linear Relationship between Crystal Size and Fragment Binding Time Observed Crystallographically: Implications for Fragment Library Screening Using Acoustic Droplet Ejection” (PLoS ONE, 2014).
pKd: −log10 of the molar value.

Biological target: T1, Lysozyme (Gallus gallus, UniProt P00698)
T1 construct: gene LYZ
Assay: X-ray crystallography of soaked crystals ([…] data sets), ligand occupancy vs soak time; Kd^cryst from fitted Omax
Format: binding

T1 sequence (P00698 19-147): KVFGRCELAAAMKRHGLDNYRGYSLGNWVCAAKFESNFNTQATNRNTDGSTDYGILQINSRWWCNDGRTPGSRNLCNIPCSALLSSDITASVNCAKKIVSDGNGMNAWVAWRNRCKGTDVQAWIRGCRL

## CC(=O)N[C@H]1C(O)O[C@H](CO)[C@@H](O)[C@@H]1O (stereo partly shown) [NAG, N-acetyl glucosamine]
  pKd: 2.27
